Test results taken from patent publication US11344510B2, “Arylcyclohexylamine derivatives and their use in the treatment of psychiatric disorders” (Gilgamesh Pharmaceuticals, Inc., priority 2019, dated 2022).
“Also recorded” adds a separate entry of the source. Where two headings read alike, the source gives them in different places.

Experiments:
[1] = molecular target: MK-801 site of NMDAR (Rattus norvegicus, UniProt P35439); conditions: read-out: NMDAR Ki ± SEM, from Ebert et al. 1997; cited from earlier work
[2] = Oral bioavailability in mice, Method A; assay type: in vivo; conditions: CD-1 mice; for F: 10 mg/kg; for half-life / Cmax / AUC(0-inf): male, mouse
Method: Animals. Male CD-1 mice were used in these studies Animals were randomly assigned to treatment groups and were fasted for 4 h before dosing.
Drugs. Test compounds were dissolved in normal saline (ketamine) or de-ionized water (other compounds) and administered intravenously (iv) or orally (po) at a dose of 10 mg/kg (calculated based on freebase) and at a volume of 5 mL/kg body weight. Compounds were tested as the racemates (indicated by “rac” nomenclature) or pure enantiomers (indicated by “R” or “S” nomenclature).
Sample Collection and Bioanalysis. Blood samples were collected under 2,2,2-tribromoethanol anesthesia (150 mg/kg, ip) from the orbital sinus at 0.083, 0.25, 0.5, 1, 2, 4, 8 and 24 h (4 animals per time point) into microcontainers containing K2EDTA Immediately after collection of blood, mice were euthanized by cervical dislocation and brain samples were collected at the same time points. All samples were immediately processed, flash-frozen, and stored at −70° C. until subsequent analysis. Plasma samples were separated by centrifugation of whole blood and aliquots (50 μL) were mixed with 200 μL of internal standard solution (400 ng/mL in 1:1 v/v CH3CN:MeOH). After mixing by pipetting and centrifuging for 4 min at 6000 rpm, 0.5 μL of each supernatant was analyzed for drug using a fit-for-purpose liquid chromatography-tandem mass spectrometry (LC-MS/MS) method, with authentic samples of each analyte used for calibration and identification. Brain samples (weight 100 mg±1 mg) were dispersed in 500 μL, of internal standard solution (400 ng/mL in 4:1 v/v MeOH:water) using zirconium oxide beads (115 mg±5 mg) in The Bullet Blender® homogenizer for 30 s at speed 8. After homogenization, the samples were centrifuged for 4 min at 14,000 rpm and 0.5 μL of each supernatant was analyzed for drug using a fit-for-purpose LC-MS/MS method, with authentic samples of each analyte used for calibration and identification.
Data Analysis. The drug concentrations of samples below the lower limit of quantitation (LLOQ) were designated as zero. Pharmacokinetic data analysis was performed using noncompartmental, bolus injection or extravascular input analysis models in WinNonlin 5.2 (PharSight). Data points below LLOQ were presented as missing to improve validity of t112 calculations.

[3] = HLM stability (High Activity); assay type: in vitro ADME; conditions: both sexes, human, liver microsomes, pH 7.4, Condition 2 (High Activity), 1.0 mg protein/mL
Outline: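 Pooled male and female human liver microsomes, 1.0 mg protein/mL, in 100 mM PBS pH 7.4 with NADPH-regenerating system; compound 1 μM at 37° C, five time points over 60 min. Parent remaining by LC-MS/MS; kel, t1/2 and Clint from linear regression of ln(AUC) versus time.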

[4] = HLM stability (Low Activity); assay type: in vitro ADME; conditions: both sexes, human, liver microsomes, pH 7.4, Condition 1 (Low Activity), 0.42 mg protein/mL
Method: For some of the compounds, stability was tested under two microsomal incubation conditions, one with normal enzymatic activity (low activity) and one with higher enzymatic loading, longer incubation time, and lower compound concentration (high activity) intended to increase metabolic lability.
HLM Stability (Low Activity). Pooled HLM from adult male and female donors (XenoTech H0630) were used. Microsomal incubations were carried out in 96-well plates in 5 aliquots of 40 μL, each (one for each time point). Liver microsomal incubation medium consisted of PBS (100 mM, pH 7.4), MgCl2 (3.3 mM), NADPH (3 mM), glucose-6-phosphate (5.3 mM), and glucose-6-phosphate dehydrogenase (0.67 units/mL), with 0.42 mg of liver microsomal protein per mL. Control incubations were performed by replacing the NADPH-cofactor system with PBS. Test compounds (2 μM, final solvent concentration 1.6%) were incubated with microsomes at 37° C., shaking at 100 rpm. Incubations were performed in duplicate. Five time points over 40 minutes were analyzed. The reactions were stopped by adding 12 volumes of 90% acetonitrile-water to incubation aliquots, followed by protein sedimentation by centrifugation at 5500 rpm for 3 minutes. Supernatants were analyzed for parent compound remaining using a fit-for-purpose liquid chromatography-tandem mass spectrometry (LC-MS/MS) method, with authentic samples of each analyte used for identity confirmation.
Data Analysis. The elimination constant (kel), half-life (t1/2) and intrinsic clearance (Clint) were determined in a plot of […] versus time, using linear regression analysis.

[5] = system: mice (forced swim test); test: Forced swim test in mice, 30-minute pre-treatment; assay type: in vivo, Swiss Webster mice; conditions: s.c., 30 minutes before test, relative to vehicle
Method: Animals. Male Swiss Webster mice, aged 4-5 weeks (body weight 25-30 g, Envigo) were used in the experiments Animals were housed in groups of 4-5 under controlled temperatures and 12-hour light/dark cycles, with ad libitum food (Teklad 7001 rodent diet) and water. These studies were carried out in strict accordance with the recommendations in the Guide for the Care and Use of Laboratory Animals of the National Institutes of Health. All efforts were made to minimize suffering.
Drugs and Drug Administration. Imipramine hydrochloride was administered intraperitoneally (i.p.) at a dose of 30 mg/kg. Other compounds were tested as the racemates (indicated by “rac” nomenclature) and were administered subcutaneously (s.c.) as the hydrochloride salts. Normal saline was used as the vehicle and all compounds were administered at a volume of 10 mL/kg, 30 minutes before behavioral testing.
Forced Swim Test (FST). Group size was n=10 per treatment Animals were acclimated to the testing room 30 minutes prior to behavioral testing. Mice were placed individually in a cylinder of water measuring 5 inches wide by 10 inches tall and maintained at 24-25° C. The activity of each mouse was recorded for 6 minutes using Noldus Ethovision tracking software, with periods of inactivity being automatically quantified.
Statistical Analysis. The data points shown are the mean±standard error of the mean (SEM). Analysis was performed using GraphPad Prism 6. Indicated statistical comparisons represent the results of unpaired, two-tailed t tests relative to vehicle (not corrected for multiple comparisons).

[6] = system: CSDS-susceptible mice; test: Behavioral tests after chronic social defeat stress (CSDS); assay type: in vivo, C57BL/6 mice; conditions: 10 mg/kg i.p., single dose
[7] = molecular target: MK-801 binding site of the N-methyl-D-aspartate receptor (NMDAR); test: NMDAR radioligand binding with [3H]MK-801, Method A; set-up: species or system Wistar rat; conditions: MK-801 site, Method A, Wistar rat brain (minus cerebellum), 5.0 nM [3H]MK-801; read-out: NMDAR Ki ± SEM
Method: Radioligand Binding—Method A. Affinity of the test compounds for NMDAR was determined in radioligand binding experiments with [^3H]MK-801 by Eurofins Panlabs, Inc., using methods adapted from the literature (Javitt et al. 1987; Reynolds et al. 1989) and under the conditions described in Table 12.

[8] = calculated based on brain exposure
[9] = brain, 10 mg/kg iv, read-out: t1/2 (iv)
[10] = brain, 10 mg/kg po, read-out: t1/2 (po)
[11] = plasma, 10 mg/kg iv, read-out: AUC0-inf (iv) (converted)
[12] = plasma, 10 mg/kg iv, read-out: t1/2 (iv)
[13] = plasma, 10 mg/kg po, read-out: AUC0-inf (po) (converted)
[14] = plasma, 10 mg/kg po, read-out: t1/2 (po)
[15] = plasma, absolute oral bioavailability

Structure (SMILES) | Ki [1] | AUC0-inf (iv) ([2]; brain, 10 mg/kg iv) | AUC0-inf (po) ([2]; brain, 10 mg/kg po) | F [2, 8] | half-life [2, 9] | Cmax ([2]; brain, 10 mg/kg po) | half-life [2, 10] | AUC(0-inf) [2, 11] | half-life [2, 12] | Cmax ([2]; plasma, 10 mg/kg po) | AUC(0-inf) [2, 13] | half-life [2, 14] | F [2, 15] | half-life at 1 μM [3] | microsomal CLint at 1 μM [3] | half-life at 2 μM [4] | microsomal CLint at 2 μM [4] | immobility time in FST [5] | antidepressant-like activity in behavioral tests after CSDS (TST, FST, SPT) [6] | Ki [7]
CN[C@]1(c2ccccc2Cl)CCCCC1=O (single isomer, unassigned) [(S)-ketamine, ketamine] | 300 ± 13 nM |  |  |  |  |  |  |  |  |  |  |  |  |  |  |  |  |  |  | 
CCNC1(c2cccc(OC)c2)CCCCC1=O (racemic) [Compound 2rac] |  | 279,000 ng*min/g | 11,800 ng*min/g | 4% | 16.1 min | 420 ng/g | 16.6 min | 1100 ng·h/mL | 17.9 min | 135 ng/mL | 62.8 ng·h/mL | 14 min | 6% | 199 min | 3 µL/min/mg | 4.85 h | 6 µL/min/mg | reduced time immobile; also recorded: induced antidepressant-like effects |  | 
CNC1(c2ccccc2F)CCCCC1=O (racemic) [Compound 35rac, 2-(2-Fluorophenyl)-2-(methylamino)cyclohexan-1-one] |  | 186,000 ng*min/g | 34,200 ng*min/g | 18% | 16.1 min | 1840 ng/g | 19.1 min | 1300 ng·h/mL | 15.1 min | 618 ng/mL | 363 ng·h/mL | 19.7 min | 28% | 148 min | 5 µL/min/mg | 2.85 h | 10 µL/min/mg | did not have effects | superior to 37rac; also recorded: reversed the pro-depressive effects | 1820 nM
CN[C@@]1(c2ccccc2Cl)CCCCC1=O (single isomer, unassigned) [(R)-ketamine, ketamine] | 1400 ± 100 nM |  |  |  |  |  |  |  |  |  |  |  |  |  |  |  |  |  |  | 
CNC1(c2ccccc2OC)CCCCC1=O (racemic) [Compound 4rac] |  | 292,000 ng*min/g | 135,000 ng*min/g | 46% | 19.9 min | 1900 ng/g | 45.9 min | 1650 ng·h/mL | 20.6 min | 958 ng/mL | 850 ng·h/mL | 42.6 min | 51% | 819 min | 1 µL/min/mg | 43.2 h | 1 µL/min/mg | did not have effects |  | 35000 nM
